Measurements as given in patent US11458189B2, “Cytoprotective drugs” (BALMES TRANSPLANTATION, priority 2017, dated 2022).
Starred links: 1 amine or outer side, 2 acyl side, 3 side chain; linkers in the order of their positions; H or OH if unused. Positions of bridges follow the written chain, without caps; N, C: chain ends. Non-standard residues stand in square brackets, D forms with d. Residues, ends and D or L forms follow the SMILES beside them. *: point of attachment. hTyr(3S-OH,4S-OH,3'-OSO3H) = N[C@H](C(=O)O)[C@H](O)[C@@H](O)c1ccc(O)c(OS(=O)(=O)O)c1; Orn(4R-OH,5R-OH) = O=C([C@H](C[C@@H](O)[C@@H](O)N[*:3])N[*:1])[*:2]; Pro(3S-OH,4S-Me) = C[C@H]1CN[C@H](C(=O)O)[C@H]1O; X1 = CCCCCOc1ccc(-c2cc(-c3ccc(C(=O)*)cc3)no2)cc1; Gln(3R-OH) = NC(=O)C[C@@H](O)[C@H](N)C(=O)O; Hyp = O=C(O)[C@@H]1C[C@@H](O)CN1

Test system: Rat Primary Kidney Glomerular Endothelial cells
Test: Oxygen and glucose deprivation followed by replenishment, cell survival (calcein AM), rat glomerular endothelial cells;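 as to Survival rate (%): 100% is hypoxia control with glucose and 0% is untreated OGD control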
Format: cell-based
Experimental: Anidulafungin and micafungin were tested on Human Renal Glomerular Endothelial Cells (HRGEC, Innoprot P10665), on Human Renal Proximal Tubular Epithelial Cells (HRPTEpiC, Innoprot P10662), on Human Astrocytes (HA, caltag SC-1800), on Human Cardiac Microvascular Endothelial Cells (HCMEC, Caltag SC-6000), on Human Hepatic Sinusoidal Endothelial Cells (HHSEC, Caltag SC-5000), on Rat Primary Kidney Glomerular Endothelial cells (Cellbiologics, RN-6014G) and on Bovine Brain Microvascular Endothelial Cells (BBMEC, Caltag SC-B100).
In a first phase, these isolated, purified and cryopreserved cells are thawed and multiplied according to the supplier's recommendations in T75 or T175 flasks pre-coated with 2 μg of fibronectin/[…] (CORNING) for HRGEC, HCMEC, HHSEC and BBMEC, or 2 μg poly-L-lysin/cm^2 (Caltag SC-0403) for HRPTEpiC and HA, or 15 mL/flask 175 cm^2 gelatin-based solution (Cellbiologics) in the presence of endothelial cell supplemented growth medium ECM (P60104, INNOPROT, Caltag, SC-1001) for HRGEC, HCMEC, HHSEC, RPKGEC or BBMEC, or astrocyte cell supplemented growth medium AM (Caltag SC-1801) for HA or epithelial cell supplemented growth medium EpiCM (P60106, INNOPROT) for HRPTEpiC, at 37° C. under 5% CO2 and saturated humidity until their confluency. They are then harvested by trypsinization according to the method described by the supplier for exactly 5 minutes and then reseeded in new flasks a maximum of three times.
To carry out the oxygen and glucose deprivation test followed by their replenishment, the cells will be seeded in 96-well black plates with transparent flat bottom (GREINER). Once a sufficient number of cells has been obtained to allow seeding of 2000 to 15000 cells per well of 96-well plates depending on the cell type, the cells are seeded in these 96-well plates previously coated with an extracellular matrix as listed above for the flasks. The cells are cultured for 5 to 8 days according to the cell type, in the presence of the same growth medium as in the flask as described above except for HRGEC and HRPTEpiC for which DMEM (DUTSCHER) with 1 g/L of supplemented glucose is used, at 37° C. under 5% CO2 and saturated humidity to obtain confluency.
On the first day of oxygen and glucose deprivation, (5th, 6th, 7th or 8th day of culture), the culture conditions are drastically changed. The medium of all plates is removed and replaced by DMEM (DUTSCHER) medium without glucose and supplemented only with 1% penicillin-streptomycin (DUTSCHER). Anidulafungin or micafungin dissolved in dimethyl sulfoxide (DMSO) is then added to each well at the desired concentration, resulting in a maximum of 1% DMSO, and the plates are placed under hypoxia at <1% 02 and 5% CO2 at 37° C. for 24 hours of culture. Each compound was tested in a concentration range.
After 24 hours, the growth medium is changed and replaced by a richer medium, DMEM (DUTSCHER) at 1 g/L glucose and 2% FBS (INNOPROT) and 1% penicillin-streptomycin (DUTSCHER). These media will have been pre-equilibrated at 37° C. in advance. The cells are then returned to culture at 37° C. under 20% 02 and 5% CO2 for 22h.
After 22 hours of reoxygenation, the potential protective effect of anidulafungin or micafungin is measured by a cell viability test using calcein AM (CORNING), which is a dye substrate. The calcein AM can easily cross the cell membrane of the viable cells. The AM ester groups mask the part of the molecule that chelates calcium. Once inside the cells, the (non-fluorescent) calcein AM is hydrolyzed to (fluorescent) calcein by endogenous esterases. The resulting calcein molecule binds to calcium inside the cell and remains trapped inside the cell. These molecules emit strong green fluorescence when subjected to […] of a particular wavelength (495 nm). Since dead cells lack esterase activity, only living cells are labelled.
This cell viability test is performed in two steps. […]

## CCCCCOc1ccc(-c2cc(-c3ccc(C(=O)N[C@H]4C[C@@H](O)[C@@H](O)NC(=O)[C@@H]5[C@@H](O)[C@@H](C)CN5C(=O)[C@H]([C@H](O)CC(N)=O)NC(=O)[C@H]([C@H](O)[C@@H](O)c5ccc(O)c(OS(=O)(=O)O)c5)NC(=O)[C@@H]5C[C@@H](O)CN5C(=O)[C@H]([C@@H](C)O)NC4=O)cc3)no2)cc1 [Micafungin, {5-[(1S,2S)-2-[(3S,6S,9S,11R,15S,18S,20R,21R,24S,25S,26S)-3-[(1R)-2-carbamoyl-1-hydroxyethyl]-11,20,21,25-tetrahydroxy-15-[(1R)-1-hydroxyethyl]-26-methyl-2,5,8,14,17,23-hexaoxo-18-[(4-{5-[4-(pentyloxy)phenyl]-1,2-oxazol-3-yl}benzene)amido]-1,4,7,13,16,22-hexaazatricyclo[22.3.0.0]heptacosan-6-yl]-1,2-dihydroxyethyl]-2-hydroxyphenyl}oxidanesulfonic acid] (X1-[Orn(4R-OH,5R-OH)]T[Hyp][hTyr(3S-OH,4S-OH,3'-OSO3H)][Gln(3R-OH)][Pro(3S-OH,4S-Me)]; lactam 1-C)
[Micafungin] log μM 1.176091
  Globalfluo assay 1: 17307060 arbitrary units
  Globalfluo assay 2: 19173810 arbitrary units
  Globalfluo assay 3: 18057880 arbitrary units
  Mean globalfluo: 18179583 arbitrary units
  Survival rate (%): 57%
[Micafungin] log μM 1.30103
  Globalfluo assay 1: 21761030 arbitrary units
  Globalfluo assay 2: 21216730 arbitrary units
  Globalfluo assay 3: 18246850 arbitrary units
  Mean globalfluo: 20408203 arbitrary units
  Survival rate (%): 66%
[Micafungin] log μM 1.477121
  Globalfluo assay 1: 23916400 arbitrary units
  Globalfluo assay 2: 22885210 arbitrary units
  Globalfluo assay 3: 21104460 arbitrary units
  Mean globalfluo: 22635357 arbitrary units
  Survival rate (%): 75%
[Micafungin] log μM 1.60206
  Globalfluo assay 1: 21279700 arbitrary units
  Globalfluo assay 2: 21255650 arbitrary units
  Globalfluo assay 3: 20543100 arbitrary units
  Mean globalfluo: 21026150 arbitrary units
  Survival rate (%): 69%
[Micafungin] log μM 1.778151
  Globalfluo assay 1: 22384980 arbitrary units
  Globalfluo assay 2: 24586670 arbitrary units
  Globalfluo assay 3: 22823930 arbitrary units
  Mean globalfluo: 23265193 arbitrary units
  Survival rate (%): 78%
[Micafungin] log μM 1.90309
  Globalfluo assay 1: 25482590 arbitrary units
  Globalfluo assay 2: 16667370 arbitrary units
  Globalfluo assay 3: 22222960 arbitrary units
  Mean globalfluo: 21457640 arbitrary units
  Survival rate (%): 71%
[Micafungin] log μM 2
  Globalfluo assay 1: 23318050 arbitrary units
  Globalfluo assay 2: 20442770 arbitrary units
  Globalfluo assay 3: 22906760 arbitrary units
  Mean globalfluo: 22222527 arbitrary units
  Survival rate (%): 74%
[Micafungin] log μM 2.176091
  Globalfluo assay 1: 20166170 arbitrary units
  Globalfluo assay 2: 24333680 arbitrary units
  Globalfluo assay 3: 26066530 arbitrary units
  Mean globalfluo: 23522127 arbitrary units
  Survival rate (%): 79%
[Micafungin] log μM −0.154902
  Globalfluo assay 1: 3831476 arbitrary units
  Globalfluo assay 2: 4395798 arbitrary units
  Globalfluo assay 3: 3538568 arbitrary units
  Mean globalfluo: 3921947 arbitrary units
  Survival rate (%): 0%
[Micafungin] log μM −0.30103
  Globalfluo assay 1: 4962690 arbitrary units
  Globalfluo assay 2: 4263110 arbitrary units
  Globalfluo assay 3: 4133198 arbitrary units
  Mean globalfluo: 4452999 arbitrary units
  Survival rate (%): 2%
[Micafungin] log μM −0.5228788
  Globalfluo assay 1: 4164368 arbitrary units
  Globalfluo assay 2: 5246152 arbitrary units
  Globalfluo assay 3: 3621246 arbitrary units
  Mean globalfluo: 4343922 arbitrary units
  Survival rate (%): 2%
[Micafungin] log μM −1
  Globalfluo assay 1: 4086038 arbitrary units
  Globalfluo assay 2: 5779074 arbitrary units
  Globalfluo assay 3: 4555233 arbitrary units
  Mean globalfluo: 4806782 arbitrary units
  Survival rate (%): 4%
[Micafungin] log μM −2
  Globalfluo assay 1: 4295861 arbitrary units
  Globalfluo assay 2: 4126418 arbitrary units
  Globalfluo assay 3: 4707699 arbitrary units
  Mean globalfluo: 4376659 arbitrary units
  Survival rate (%): 2%
[Micafungin] log μM −3
  Globalfluo assay 1: 4397869 arbitrary units
  Globalfluo assay 2: 4804046 arbitrary units
  Globalfluo assay 3: 3922702 arbitrary units
  Mean globalfluo: 4374872 arbitrary units
  Survival rate (%): 2%
